{"source": "patent US7419780B2", "about": "“Methods and assays for screening protein targets” (The Trustees of Columbia University in the City of New York, priority 2000, dated 2008)", "format_in_all_cases": "cell-based, S. cerevisiae", "settings_in_all_cases": "1 uM small molecule, difference to activity without small molecule, average of two trials", "key": {"[1]": {"target": "T1, LexA (GSG)2eDHFR / B42 (GSG)rGR2 (UniProt P06536+P0ABQ4, C656G/F620S)", "T1 construct": "rat Glucocorticoid Receptor (aa 524-795) with point mutations; expressed in transfected cells; host or cells: S. cerevisiae FY250", "T1 sequence (P0ABQ4 1-159)": "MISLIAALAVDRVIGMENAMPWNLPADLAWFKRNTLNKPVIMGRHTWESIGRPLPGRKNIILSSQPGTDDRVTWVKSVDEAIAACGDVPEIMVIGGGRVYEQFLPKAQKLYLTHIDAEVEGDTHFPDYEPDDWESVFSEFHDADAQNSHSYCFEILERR", "T1 sequence (P06536 524-795 F620S/C656G limits assumed)": "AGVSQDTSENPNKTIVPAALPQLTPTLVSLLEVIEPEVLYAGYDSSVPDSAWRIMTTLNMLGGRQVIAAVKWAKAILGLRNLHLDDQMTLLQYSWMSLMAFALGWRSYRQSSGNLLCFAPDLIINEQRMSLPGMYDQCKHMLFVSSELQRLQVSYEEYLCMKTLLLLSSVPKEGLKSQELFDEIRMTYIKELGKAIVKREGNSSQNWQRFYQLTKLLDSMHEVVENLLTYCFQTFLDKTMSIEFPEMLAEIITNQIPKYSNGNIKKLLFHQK", "test": "β-galactosidase activity assay, strain V501Y", "description": "(§1) Table III explains the components of each strain. Each strain was constructed from the parent yeast strain FY250 and also contains the pMW106 plasmid, which has the LacZ reporter gene that is turned on only in when the LexA DNA binding domain and the B42 activation are brought in tot he vicinity of each other. We use several different strains because we use DHFR from two different species, mDHFR is from murine, while eDHFR is from E. coli. We are asl oable to switch the small moleculebinding domains. For example, the strain containing LexA-eDHFR with B42-rGH2 is a different strain and behaves differently from the strain containing LexA-rGR2 with B42-eDHFR. We also put in short 6 amino acid linkers between the two domains of our protein chimeras and thus these are different strain as well.\n(§2) The results in Table IV are averages of two separate trials. Each strain was examined with small molecules and without small molecules. The absolute activity is given as the β-galactisidase activity […]. The average β-galactosidse activity for a strain without small molecule (i.e. the negative control) was about 100 β-galactosidase units."}, "[2]": {"target": "T2, LexA (GSG)2rGR2 / B42 (GSG)2eDHFR (UniProt P06536+P0ABQ4, C656G/F620S)", "T2 construct": "rat Glucocorticoid Receptor (aa 524-795) with point mutations; expressed in transfected cells; host or cells: S. cerevisiae FY250", "T2 sequence (P06536 524-795 F620S/C656G limits assumed)": "T1 sequence (P06536 524-795 F620S/C656G limits assumed)", "T2 sequence (P0ABQ4 1-159)": "T1 sequence (P0ABQ4 1-159)", "test": "β-galactosidase activity assay, strain V510Y", "description": "as §1, §2"}, "LexA rGR2 / B42 mDHFR": {"target": "T3, LexA rGR2 / B42 mDHFR (UniProt P00375+P06536, C656G/F620S)", "T3 construct": "rat Glucocorticoid Receptor (aa 524-795) with point mutations; expressed in transfected cells; host or cells: S. cerevisiae FY250", "T3 sequence (P06536 524-795 F620S/C656G limits assumed)": "T1 sequence (P06536 524-795 F620S/C656G limits assumed)", "T3 sequence (P00375 1-187)": "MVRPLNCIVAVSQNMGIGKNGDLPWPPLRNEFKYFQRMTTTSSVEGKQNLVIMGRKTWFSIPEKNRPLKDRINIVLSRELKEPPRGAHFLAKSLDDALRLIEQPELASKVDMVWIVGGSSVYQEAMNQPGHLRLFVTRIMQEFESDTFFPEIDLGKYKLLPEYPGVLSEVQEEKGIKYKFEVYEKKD", "test": "β-galactosidase activity assay, strain V507Y", "description": "as §1, §2"}, "[3]": {"target": "T4, LexA (GSG)2eDHFR / B42 rGR2 (UniProt P06536+P0ABQ4, C656G/F620S)", "T4 construct": "rat Glucocorticoid Receptor (aa 524-795) with point mutations; expressed in transfected cells; host or cells: S. cerevisiae FY250", "T4 sequence (P0ABQ4 1-159)": "T1 sequence (P0ABQ4 1-159)", "T4 sequence (P06536 524-795 F620S/C656G limits assumed)": "T1 sequence (P06536 524-795 F620S/C656G limits assumed)", "test": "β-galactosidase activity assay, strain V498Y", "description": "as §1, §2"}, "[4]": {"target": "T5, LexA mDHFR / B42 (GSG)rGR2 (UniProt P00375+P06536, C656G/F620S)", "T5 construct": "rat Glucocorticoid Receptor (aa 524-795) with point mutations; expressed in transfected cells; host or cells: S. cerevisiae FY250", "T5 sequence (P00375 1-187)": "T3 sequence (P00375 1-187)", "T5 sequence (P06536 524-795 F620S/C656G limits assumed)": "T1 sequence (P06536 524-795 F620S/C656G limits assumed)", "test": "β-galactosidase activity assay, strain V497Y", "description": "as §1, §2"}, "LexA rGR2 / B42 eDHFR": {"target": "T6, LexA rGR2 / B42 eDHFR (UniProt P06536+P0ABQ4, C656G/F620S)", "T6 construct": "rat Glucocorticoid Receptor (aa 524-795) with point mutations; expressed in transfected cells; host or cells: S. cerevisiae FY250", "T6 sequence (P06536 524-795 F620S/C656G limits assumed)": "T1 sequence (P06536 524-795 F620S/C656G limits assumed)", "T6 sequence (P0ABQ4 1-159)": "T1 sequence (P0ABQ4 1-159)", "test": "β-galactosidase activity assay, strain V505Y", "description": "as §1, §2"}, "[5]": {"target": "T7, LexA (GSG)2mDHFR / B42 (GSG)rGR2 (UniProt P00375+P06536, C656G/F620S)", "T7 construct": "rat Glucocorticoid Receptor (aa 524-795) with point mutations; expressed in transfected cells; host or cells: S. cerevisiae FY250", "T7 sequence (P00375 1-187)": "T3 sequence (P00375 1-187)", "T7 sequence (P06536 524-795 F620S/C656G limits assumed)": "T1 sequence (P06536 524-795 F620S/C656G limits assumed)", "test": "β-galactosidase activity assay, strain V504Y", "description": "as §1, §2"}, "[6]": {"target": "T8, LexA (GSG)2rGR2 / B42 mDHFR (UniProt P00375+P06536, C656G/F620S)", "T8 construct": "expressed in transfected cells; host or cells: S. cerevisiae FY250 with pMW106 lacZ reporter", "T8 sequence (P06536 524-795 F620S/C656G limits assumed)": "T1 sequence (P06536 524-795 F620S/C656G limits assumed)", "T8 sequence (P00375 1-187)": "T3 sequence (P00375 1-187)", "test": "β-galactosidase activity assay, strain V508Y", "description": "as §1, §2"}, "[7]": {"target": "T9, LexA mDHFR / B42 gly6rGR2 (UniProt P00375+P06536, C656G/F620S)", "T9 construct": "rat Glucocorticoid Receptor (aa 524-795) with point mutations; expressed in transfected cells; host or cells: S. cerevisiae FY250", "T9 sequence (P00375 1-187)": "T3 sequence (P00375 1-187)", "T9 sequence (P06536 524-795 F620S/C656G limits assumed)": "T1 sequence (P06536 524-795 F620S/C656G limits assumed)", "test": "β-galactosidase activity assay, strain V496Y", "description": "as §1, §2"}, "[8]": {"target": "T10, LexA eDHFR / B42 gly6rGR2 (UniProt P06536+P0ABQ4, C656G/F620S)", "T10 construct": "rat Glucocorticoid Receptor (aa 524-795) with point mutations; expressed in transfected cells; host or cells: S. cerevisiae FY250", "T10 sequence (P0ABQ4 1-159)": "T1 sequence (P0ABQ4 1-159)", "T10 sequence (P06536 524-795 F620S/C656G limits assumed)": "T1 sequence (P06536 524-795 F620S/C656G limits assumed)", "test": "β-galactosidase activity assay, strain V375Y", "description": "as §1, §2"}}}
{"smiles": "C[C@@H]1C[C@H]2C3CCC4=CC(=O)C=C[C@]4(C)[C@@]3(F)[C@@H](O)C[C@]2(C)[C@@]1(O)C(=O)NCCSCc1cccc(CSCC[C@H](NC(=O)c2ccc(N(C)Cc3cnc4nc(N)nc(N)c4n3)cc2)C(=O)O)c1", "note": "(stereo partly shown) [DM1]", "values": [{"measurement": "B-gal activity", "setting": "[1]", "result": "4662 β-galactosidase units"}, {"measurement": "B-gal activity", "setting": "[2]", "result": "601 β-galactosidase units"}, {"measurement": "B-gal activity", "setting": "LexA rGR2 / B42 mDHFR", "result": "−7 β-galactosidase units"}, {"measurement": "B-gal activity", "setting": "[3]", "result": "4735 β-galactosidase units"}, {"measurement": "B-gal activity", "setting": "[4]", "result": "−8 β-galactosidase units"}, {"measurement": "B-gal activity", "setting": "LexA rGR2 / B42 eDHFR", "result": "557 β-galactosidase units"}, {"measurement": "B-gal activity", "setting": "[5]", "result": "12 β-galactosidase units"}, {"measurement": "B-gal activity", "setting": "[6]", "result": "0 β-galactosidase units"}, {"measurement": "B-gal activity", "setting": "[7]", "result": "−30 β-galactosidase units"}, {"measurement": "B-gal activity", "setting": "[8]", "result": "4978 β-galactosidase units"}]}
